Experimental findings from patent US12679836B2, “4H-pyrrolo[3,2-c]pyridin-4-one compounds” (Bayer Aktiengesellschaft, priority 2019, dated 2026) are described below.

For experiment [1], the target named is Ba/F3-EGFR-E746_A750del cells (Homo sapiens, UniProt P00533, DEL746-750, cells depend on it). The experiment can be described thus: Ba/F3 cell survival assay, EGFR E746_A750del. It counts as cell-based. The following applies: without IL-3, without EGF, 48 h; read-out: BA/F3 (EGFR E746_A750del) IC50. The procedure: (§1) 293T cells from ATCC were transfected with pBABEpuro expression constructs for mutant EGFR (V769_D770insASV, D770_N771insNPG, N771_P772insH, H773_V774insNPH, E746_A750del, L858R, D770_N771insSVD C797S, E746_A750del C797S, L858R C797S, L861Q) or mutant ERBB2 (A775_G776insYVMA) and pCL-Eco packaging vector using Fugene-6 transfection reagent from Promega. Plates were incubated at 37° C. for 48 h. Retrovirus was harvested by filtering the media supernatant through a 0.45 μm filter.
(§2) Ba/F3 cells purchased from DSMZ were grown in RPMI+10% FBS+10 ng/mL IL-3 and infected with filtered retroviral supernatant at a 1:2 dilution. Polybrene was added to a concentration of 8 μg/mL, plates were spun for 90 min, and incubated overnight at 37° C. 2 μg/mL puromycin was added to the infected cells 24 h after infection and cells were continually grown in the presence of puromycin and 10 ng/mL IL-3. Following stably expressing Ba/F3 cell lines were generated: Ba/F3-EGFR-V769_D770insASV, Ba/F3-EGFR-D770_N771insNPG, Ba/F3-EGFR-N771_P772insH, Ba/F3-EGFR-H773_V774insNPH, Ba/F3-EGFR-E746_A750del, Ba/F3-EGFR-L858R, Ba/F3-EGFR-D770_N771 insSVD C797S, Ba/F3-EGFR-E746_A750del C797S, Ba/F3-EGFR-L858R C797S, Ba/F3-EGFR L861Q and Ba/F3-ERBB2-A775_G776insYVMA (Ba/F3-vector-control).
(§3) For cell survival assays, Ba/F3 cells were grown to a density of 1-2 million cells per mL, spun down and resuspended in media without IL-3, and replated at a concentration 200,000-500,000 cells per mL. The cells ectopically expressing WT EGFR plated with 10 ng/mL Millipore Culture grade EGF and Ba/F3 cells containing mutant EGFR or Mutant ERBB2 were cultivated without EGF. The cells ectopically expressing pBABEpuro empty vector were plated with 10 ng/mL IL-3.
(§4) 2 days later, cells were plated in 50 μL in a 384 well plate at a concentration of 4000 cells per well for cells assayed in the absence of IL-3 and 2000 cells per well for cells assayed in the presence of IL-3. 100 nL of compound was added to each well using a 100 nL pin head, and plates were incubated at 37° C. for 48 h.
(§5) Cell viability was measured by adding 20 μL of Cell Titer-Glo Luminescent Cell Viability Reagent diluted 1:3 in PBS. Plates were sealed with Perkin Elmer Top-Seal, inverted several times to mix, and immediately centrifuged at 1000 rpm for 2 min. Plates were incubated in low light conditions for 8-10 min and luminescence was measured.

The target of experiment [2] is Ba/F3-EGFR-L858R C797S cells (Homo sapiens, UniProt P00533, C797S/L858R, cells depend on it). Nature of the experiment: Ba/F3 cell survival assay, EGFR L858R C797S. It counts as cell-based. The following applies: without IL-3, without EGF, 48 h; read-out: BA/F3 (EGFR L858R C797S) IC50. The procedure:
as §1, §2, §3, §4, §5

In experiment [3] the target is Ba/F3-EGFR-D770_N771insNPG cells (Homo sapiens, UniProt P00533, INS772GNP, cells depend on it). The experiment can be described thus: Ba/F3 cell survival assay, EGFR D770_N771insNPG. It counts as cell-based. The following applies: without IL-3, without EGF, 48 h; read-out: BA/F3 (insNPG) IC50. The procedure:
as §1, §2, §3, §4, §5

In a further experiment the target is T1, Bub1 (Homo sapiens, UniProt O43683).
T1 construct: catalytic domain of human Bub1 (amino acids 704-1085); His6 (N); made in house; host or cells: Hi5 insect cells
Nature of the experiment: Bub1 TR-FRET high ATP kinase assay. Format: biochemical. The following applies: Bub1 high ATP (2 mM) IC50 [mol/l], 2 mM ATP. The essentials:
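Recombinant His6-tagged human Bub1 catalytic domain (aa 704-1085), from Hi5 insect cells, phosphorylating a biotinylated peptide substrate at high ATP concentration. TR-FRET read-out.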
In general terms: In TR-FRET formats the signal depends on donor and acceptor labels being close together.

Experiment [4] concerns the target Ba/F3-EGFR-H773_V774insNPH cells (Homo sapiens, UniProt P00533, DUP771-773, cells depend on it). The experiment can be described thus: Ba/F3 cell survival assay, EGFR H773_V774insNPH. Format: cell-based. Conditions: read-out: BA/F3 (EGFR 773_774insNPH) IC50 [mol/l]; without IL-3, without EGF, 48 h. As for the experimental part: as §1, §2, §3, §4, §5
Experiment [5] concerns the target Ba/F3-EGFR-V769_D770insASV cells (Homo sapiens, UniProt P00533, DUP767-769, cells depend on it). The experiment can be described thus: Ba/F3 cell survival assay, EGFR V769_D770insASV. It counts as cell-based. Conditions: without IL-3, without EGF, 48 h; read-out: BA/F3 (ASV) IC50. As for the experimental part: as §1, §2, §3, §4, §5
The target of the next experiment is Ba/F3-EGFR-L858R cells (Homo sapiens, UniProt P00533, L858R, cells depend on it). The experiment can be described thus: Ba/F3 cell survival assay, EGFR L858R. It counts as cell-based. Conditions: without IL-3, without EGF, 48 h; read-out: BA/F3 (EGFR L858R) IC50. The procedure:
as §1, §2, §3, §4, §5

For experiment [6], the target named is Ba/F3-EGFR-E746_A750del C797S cells (Homo sapiens, UniProt P00533, DEL746-750/C797S, cells depend on it). Nature of the experiment: Ba/F3 cell survival assay, EGFR E746_A750del C797S. Format: cell-based. Conditions: without IL-3, without EGF, 48 h; read-out: BA/F3 (EGFR E746_A750del C797S) IC50. The procedure:
as §1, §2, §3, §4, §5

For experiment [7], the target named is Ba/F3-EGFR-N771_P772insH cells (Homo sapiens, UniProt P00533, INS771H, cells depend on it). Nature of the experiment: Ba/F3 cell survival assay, EGFR N771_P772insH. Format: cell-based. The following applies: without IL-3, without EGF, 48 h; read-out: BA/F3 (EGFR N771_772 insH) IC50. As for the experimental part: as §1, §2, §3, §4, §5
The target of experiment [8] is T2, EGFR with insertion of SVD between D770 and N771 (EGFR ins SVD) (Homo sapiens, UniProt P00533, DUP768-770).
T2 construct: made in house; host or cells: Sf9 insect cells (baculovirus)
The experiment can be described thus: Exon20-Mutant-EGFR(D770_N771insSVD) kinase assay (TR-FRET). It counts as biochemical. Conditions: 2 mM ATP, several values per example where printed.

Ba/F3-EGFR-H773_V774insNPH cells, sequence (P00533 with tags, fused parts or gaps DUP771-773): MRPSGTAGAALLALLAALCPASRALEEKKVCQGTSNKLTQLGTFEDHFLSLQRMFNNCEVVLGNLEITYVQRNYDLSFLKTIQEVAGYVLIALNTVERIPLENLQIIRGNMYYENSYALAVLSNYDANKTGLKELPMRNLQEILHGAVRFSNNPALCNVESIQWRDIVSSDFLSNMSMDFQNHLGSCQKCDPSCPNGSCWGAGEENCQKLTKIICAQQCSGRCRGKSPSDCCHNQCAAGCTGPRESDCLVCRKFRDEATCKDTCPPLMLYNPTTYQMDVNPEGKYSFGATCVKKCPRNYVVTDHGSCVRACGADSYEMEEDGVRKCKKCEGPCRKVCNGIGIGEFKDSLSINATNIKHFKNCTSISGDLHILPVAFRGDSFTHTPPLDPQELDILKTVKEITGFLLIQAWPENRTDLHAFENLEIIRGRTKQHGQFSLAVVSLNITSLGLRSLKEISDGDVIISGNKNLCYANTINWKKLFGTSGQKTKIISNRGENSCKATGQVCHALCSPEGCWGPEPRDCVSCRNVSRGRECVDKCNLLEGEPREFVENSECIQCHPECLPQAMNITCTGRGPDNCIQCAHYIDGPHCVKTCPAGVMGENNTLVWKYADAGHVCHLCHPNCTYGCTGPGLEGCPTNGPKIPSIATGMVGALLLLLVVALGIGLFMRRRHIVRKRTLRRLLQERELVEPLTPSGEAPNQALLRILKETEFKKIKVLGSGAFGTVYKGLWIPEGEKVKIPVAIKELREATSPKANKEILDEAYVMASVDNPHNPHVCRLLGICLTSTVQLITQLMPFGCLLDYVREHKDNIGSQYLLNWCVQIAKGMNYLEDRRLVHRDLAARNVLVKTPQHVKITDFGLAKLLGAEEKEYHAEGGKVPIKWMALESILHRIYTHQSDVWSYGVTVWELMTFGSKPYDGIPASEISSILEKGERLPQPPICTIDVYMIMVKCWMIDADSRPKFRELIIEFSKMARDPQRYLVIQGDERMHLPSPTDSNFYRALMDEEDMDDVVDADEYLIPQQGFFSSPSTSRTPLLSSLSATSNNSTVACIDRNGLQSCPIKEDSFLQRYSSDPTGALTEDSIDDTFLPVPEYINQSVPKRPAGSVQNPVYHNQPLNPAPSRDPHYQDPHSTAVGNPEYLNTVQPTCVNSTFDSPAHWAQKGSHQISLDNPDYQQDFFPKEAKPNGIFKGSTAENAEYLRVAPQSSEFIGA
Ba/F3-EGFR-L858R cells, sequence (P00533 whole entry L858R): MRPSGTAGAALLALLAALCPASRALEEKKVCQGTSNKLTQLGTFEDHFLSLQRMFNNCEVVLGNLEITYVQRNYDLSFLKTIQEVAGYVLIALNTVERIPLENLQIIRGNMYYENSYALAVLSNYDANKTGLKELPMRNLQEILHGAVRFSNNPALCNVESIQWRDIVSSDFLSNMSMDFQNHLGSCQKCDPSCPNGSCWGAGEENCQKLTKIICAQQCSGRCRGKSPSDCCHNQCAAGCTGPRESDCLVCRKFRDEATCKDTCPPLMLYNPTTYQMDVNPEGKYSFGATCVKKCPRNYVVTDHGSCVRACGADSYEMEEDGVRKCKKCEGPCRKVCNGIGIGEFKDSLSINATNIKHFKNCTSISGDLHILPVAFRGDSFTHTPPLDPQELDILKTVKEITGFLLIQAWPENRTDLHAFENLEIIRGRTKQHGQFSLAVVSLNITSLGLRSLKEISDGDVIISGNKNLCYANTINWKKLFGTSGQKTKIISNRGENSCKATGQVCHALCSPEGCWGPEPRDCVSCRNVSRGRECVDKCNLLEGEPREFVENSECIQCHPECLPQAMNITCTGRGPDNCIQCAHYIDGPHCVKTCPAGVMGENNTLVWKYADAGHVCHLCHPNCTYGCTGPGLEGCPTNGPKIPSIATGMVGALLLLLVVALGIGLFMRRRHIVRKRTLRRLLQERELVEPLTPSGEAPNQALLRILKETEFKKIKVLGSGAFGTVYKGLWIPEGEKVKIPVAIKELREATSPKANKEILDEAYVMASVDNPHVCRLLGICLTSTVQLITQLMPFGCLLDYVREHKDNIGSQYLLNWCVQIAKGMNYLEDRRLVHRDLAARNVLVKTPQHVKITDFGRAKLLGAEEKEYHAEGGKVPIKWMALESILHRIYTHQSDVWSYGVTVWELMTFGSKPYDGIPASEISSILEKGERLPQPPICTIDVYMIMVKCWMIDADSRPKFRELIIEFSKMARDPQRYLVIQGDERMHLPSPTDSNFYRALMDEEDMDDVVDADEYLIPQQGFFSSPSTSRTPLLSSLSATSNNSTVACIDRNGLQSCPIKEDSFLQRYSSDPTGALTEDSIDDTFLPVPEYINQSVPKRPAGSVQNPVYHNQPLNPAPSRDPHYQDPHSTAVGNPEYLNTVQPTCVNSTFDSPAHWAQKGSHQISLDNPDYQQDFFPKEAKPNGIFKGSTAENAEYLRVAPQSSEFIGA
Ba/F3-EGFR-D770_N771insNPG cells, sequence (P00533 with tags, fused parts or gaps INS772GNP): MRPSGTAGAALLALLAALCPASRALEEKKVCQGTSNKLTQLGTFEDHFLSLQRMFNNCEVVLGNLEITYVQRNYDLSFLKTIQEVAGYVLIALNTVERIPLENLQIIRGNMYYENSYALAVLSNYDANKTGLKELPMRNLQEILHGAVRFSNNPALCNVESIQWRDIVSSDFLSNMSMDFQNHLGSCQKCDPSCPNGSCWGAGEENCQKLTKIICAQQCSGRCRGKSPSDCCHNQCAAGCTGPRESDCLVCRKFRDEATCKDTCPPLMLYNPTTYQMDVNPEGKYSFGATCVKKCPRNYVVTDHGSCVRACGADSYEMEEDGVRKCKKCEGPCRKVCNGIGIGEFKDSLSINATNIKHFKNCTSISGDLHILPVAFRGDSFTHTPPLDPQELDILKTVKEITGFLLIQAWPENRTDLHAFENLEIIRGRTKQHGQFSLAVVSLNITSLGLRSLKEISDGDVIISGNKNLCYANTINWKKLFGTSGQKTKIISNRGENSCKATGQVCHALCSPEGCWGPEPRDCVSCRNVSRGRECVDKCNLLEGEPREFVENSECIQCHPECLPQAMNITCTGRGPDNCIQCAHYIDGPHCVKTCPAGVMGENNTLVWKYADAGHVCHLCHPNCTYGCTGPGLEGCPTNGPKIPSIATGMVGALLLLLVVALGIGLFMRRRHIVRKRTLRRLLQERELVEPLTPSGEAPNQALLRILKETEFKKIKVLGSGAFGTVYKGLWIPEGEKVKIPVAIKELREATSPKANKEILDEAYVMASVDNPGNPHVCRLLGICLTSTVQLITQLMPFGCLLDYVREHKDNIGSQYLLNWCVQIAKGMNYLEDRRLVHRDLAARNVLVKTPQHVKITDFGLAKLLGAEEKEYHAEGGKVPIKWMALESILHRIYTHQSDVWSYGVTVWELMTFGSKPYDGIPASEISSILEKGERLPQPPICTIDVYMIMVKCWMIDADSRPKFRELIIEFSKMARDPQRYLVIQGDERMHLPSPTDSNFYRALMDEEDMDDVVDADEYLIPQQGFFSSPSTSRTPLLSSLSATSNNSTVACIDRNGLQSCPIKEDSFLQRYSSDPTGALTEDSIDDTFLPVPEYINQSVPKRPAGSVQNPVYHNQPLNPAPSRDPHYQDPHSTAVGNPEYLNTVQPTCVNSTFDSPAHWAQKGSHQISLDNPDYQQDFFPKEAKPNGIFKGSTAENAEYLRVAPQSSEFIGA
Ba/F3-EGFR-L858R C797S cells, sequence (P00533 whole entry C797S/L858R): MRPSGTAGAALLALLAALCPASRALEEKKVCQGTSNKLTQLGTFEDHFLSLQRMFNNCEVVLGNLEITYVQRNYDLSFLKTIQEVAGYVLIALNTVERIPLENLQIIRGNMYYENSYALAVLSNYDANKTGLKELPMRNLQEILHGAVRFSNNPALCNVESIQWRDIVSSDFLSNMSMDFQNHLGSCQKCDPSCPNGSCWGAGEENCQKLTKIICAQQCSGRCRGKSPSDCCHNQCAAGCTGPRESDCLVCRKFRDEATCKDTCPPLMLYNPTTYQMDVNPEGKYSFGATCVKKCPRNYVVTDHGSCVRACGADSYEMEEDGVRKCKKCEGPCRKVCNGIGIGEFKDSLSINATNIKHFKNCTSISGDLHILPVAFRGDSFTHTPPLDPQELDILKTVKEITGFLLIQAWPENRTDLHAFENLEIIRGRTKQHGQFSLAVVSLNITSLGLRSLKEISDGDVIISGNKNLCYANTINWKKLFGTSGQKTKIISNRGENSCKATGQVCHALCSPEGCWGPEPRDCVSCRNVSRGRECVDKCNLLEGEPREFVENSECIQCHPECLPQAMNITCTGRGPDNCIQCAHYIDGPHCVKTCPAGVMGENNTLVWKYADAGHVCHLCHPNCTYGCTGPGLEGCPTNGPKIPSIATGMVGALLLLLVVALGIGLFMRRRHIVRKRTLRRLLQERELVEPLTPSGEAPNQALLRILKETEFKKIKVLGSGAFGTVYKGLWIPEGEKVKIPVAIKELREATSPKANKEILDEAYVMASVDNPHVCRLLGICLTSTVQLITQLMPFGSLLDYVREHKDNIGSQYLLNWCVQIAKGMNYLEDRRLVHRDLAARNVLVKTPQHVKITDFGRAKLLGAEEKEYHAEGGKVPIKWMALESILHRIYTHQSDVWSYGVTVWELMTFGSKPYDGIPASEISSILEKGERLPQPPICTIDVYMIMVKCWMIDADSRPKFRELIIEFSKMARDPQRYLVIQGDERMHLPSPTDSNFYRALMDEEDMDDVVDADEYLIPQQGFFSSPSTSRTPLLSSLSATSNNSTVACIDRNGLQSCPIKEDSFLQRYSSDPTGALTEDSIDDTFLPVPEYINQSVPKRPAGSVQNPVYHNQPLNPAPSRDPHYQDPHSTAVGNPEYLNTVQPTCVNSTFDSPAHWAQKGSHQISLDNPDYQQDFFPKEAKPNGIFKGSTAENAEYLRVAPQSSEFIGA

What is called IC50 is the concentration that gives 50% inhibition. Read a high IC50 as lower potency. `Cc1c(Cl)cccc1Nc1c(-c2ccncc2OC[C@H]2COCCO2)[nH]c2c1C(=O)NCC2` (single isomer, unassigned) [Example 50]: the GI50 in [1] turned out to be 1.1 nM; in experiment [2], 1.6 nM; in [3] it was 11.3 nM; in experiment [4], 40.3 nM; in experiment [5], 10.4 nM; on Ba/F3-EGFR-L858R cells it was 1.07 nM. In addition, the GI50 in experiment [6] was 0.348 nM; in experiment [7], 7.42 nM. The same molecule displayed an IC50 against Bub1 of 3540 nM. Moreover, the “mutEGFR (D770_N771insSVD) kinase assay IC50” value (“mutEGFR” below) in experiment [8] came to 0.17 nM.
Consider `COc1c(Cl)cccc1Nc1c(-c2ccncc2OC[C@@H]2COCCN2C)[nH]c2c1C(=O)NCC2` [Example 21, 3-(3-chloro-2-methoxyanilino)-2-(3-{[(3S)-4-methylmorpholin-3-yl]methoxy}pyridin-4-yl)-1,5,6,7-tetrahydro-4H-pyrrolo[3,2-c]pyridin-4-one], for which the GI50 was 0.203 nM in [1]; 0.444 nM in [2]; 5.65 nM in experiment [3]; 27.6 nM in experiment [4]; 7.78 nM in experiment [5]; 0.644 nM at Ba/F3-EGFR-L858R cells. For the same molecule, the GI50 turned out to be 0.259 nM in [6] and 4.22 nM in [7]. The molecule further yielded an IC50 against Bub1 of 3790 nM. For the same molecule, the “mutEGFR” value in [8] worked out at 0.126 nM.
Turning to `Cc1c(Cl)cccc1Nc1c(-c2ccncc2OC[C@@H]2CN(C)CCO2)[nH]c2c1C(=O)NCC2` [Example 42, 3-(3-chloro-2-methylanilino)-2-(3-{[(2S)-4-methylmorpholin-2-yl]methoxy}pyridin-4-yl)-1,5,6,7-tetrahydro-4H-pyrrolo[3,2-c]pyridin-4-one], the GI50 in experiment [1] was found to be 0.486 nM; in experiment [2] it was 1.63 nM; in [3], 12 nM; in [4], 48.5 nM; in experiment [5] it was 14.1 nM; at Ba/F3-EGFR-L858R cells, 1.51 nM. Further, the GI50 in experiment [6] worked out at 0.494 nM; in experiment [7], 6.01 nM. The same molecule returned an IC50 against Bub1 greater than 20000 nM. Moreover, in experiment [8], the “mutEGFR” value worked out at 0.155 nM.
On to `CCc1c(Cl)cccc1Nc1c(-c2ccncc2OC[C@@H]2CN(C)CCO2)[nH]c2c1C(=O)NCC2` [Example 56, 3-(3-chloro-2-ethylanilino)-2-(3-{[(2S)-4-methylmorpholin-2-yl]methoxy}pyridin-4-yl)-1,5,6,7-tetrahydro-4H-pyrrolo[3,2-c]pyridin-4-one], for which the GI50 in experiment [1] was found to be 0.892 nM; in experiment [2], 1.31 nM; in experiment [3], 6.96 nM; in experiment [4] it was 48.9 nM; in experiment [5] it was 14.1 nM; at Ba/F3-EGFR-L858R cells, 1.34 nM. Further, the GI50 in [6] was determined as 0.423 nM; in [7], 7.36 nM. Also, half-maximal inhibition against Bub1 (IC50) was put at 16500 nM. Also, the “mutEGFR” value in experiment [8] amounted to 0.258 nM.
